Columns and labels:
[1] = system: NCI-N87; experiment: NCI-N87 assay, in vitro cytotoxicity of PBD payloads (MTS, 7 days); type: cell-based; details: Homo sapiens, NCI-N87, 168 h; 7 days incubation, mean of three independent replicates
Description: The potency of each of the PBD molecules were measured via in vitro cytotoxicity assays in the carcinoma cell line NCI-N87.
(§1) Solid PBD material was dissolved in DMSO to a 2 mM stock solution, from which eight serial dilutions were made at a 1:10 ratio in DMSO and stored at −20° C. until use.
Adherent NCI-N87 cells were washed with D-PBS and detached with Trypsin-EDTA, cell density and viability were then determined in duplicate by Trypan blue exclusion assay using an automated cell counter (LUNA-II™). Cell suspension was diluted to 1×10^5 cells/ml in growth media (RPMI 1640 with Glutamax+10% (v/v) HyClone™ Fetal Bovine Serum) and vortexed before dispensing 2 mL per well into sterile 3 mL polypropylene plates. Warhead dilutions were then dispensed into the appropriate wells at 10 μl/well and mixed by repeat pipetting. For control wells 10 μl of DMSO was dispensed onto 2 mL cell suspension, and thoroughly mixed. 100 μl of each sample was then aliquoted into 2 replicate wells of a sterile flat 96-well microplate and incubated in a 37° C. CO2-gassed (5%) incubator. At the end of the incubation period time (7 days), cell viability was measured by CellTiter 96® Aqueous One (MTS) assay, which was dispensed at 20 μl/well and incubated for 4 hours at 37° C., 5% CO2.
Plates were then read on an EnVision® Multi-label Plate Reader (Perkin Elmer) using absorbance at 490 nm.
(§2) Cell survival percentage was calculated from the mean absorbance of the 2 replicate wells for each sample, compared to the mean absorbance in the two control wells treated with DMSO only (100%). The IC50 was determined by fitting each data set to sigmoidal dose-response curves with a variable slope using the non-linear curve fit algorithm on the GraphPad Prism software (San Diego, Calif.).
All the experiments in this report were carried out and tested in three independent experiments. Data are reported as the mean of the three independent replicates.

[2] = system: K562; experiment: K562 assay, in vitro cytotoxicity of PBD payloads (MTS, 4 days); type: cell-based; details: Homo sapiens, K562, 96 h; 4 days incubation, mean of three independent replicates
Description: The potency of each of the PBD molecules were measured via in vitro cytotox assays in the carcinoma cell line K562.
as §1
Adherent K562 cells were washed with D-PBS and detached with Trypsin-EDTA, cell density and viability were then determined in duplicate by Trypan blue exclusion assay using an automated cell counter (LUNA-II™). Cell suspension was diluted to 1×10^5 cells/ml in growth media (RPMI 1640 with Glutamax+10% (v/v) HyClone™ Fetal Bovine Serum) and vortexed before dispensing 2 mL per well into sterile 3 mL polypropylene plates. […] At the end of the incubation period time (4 days), cell viability was measured by CellTiter 96® Aqueous One (MTS) assay, which was dispensed at 20 μl/well and incubated for 4 hours at 37° C., 5% CO2. Plates were then read on an EnVision® Multi-label Plate Reader (Perkin Elmer) using absorbance at 490 nm.
as §2, with “Calif.). […]” for “Calif.).”

With C=C1C[C@H]2C=Nc3cc(OCc4cc(COc5cc6c(cc5OC)C(=O)N5CC(=C)C[C@H]5C=N6)cc(C(=O)O)c4)c(OC)cc3C(=O)N2C1 [Compound 53, 3,5-bis((((S)-7-Methoxy-2-methylene-5-oxo-2,3,5,11a-tetrahydro-1H-benzo[e]pyrrolo[1,2-a][1,4]diazepin-8-yl)oxy)methyl)benzoic acid] the IC50 [1] was 4.31 nM.
C=C1C[C@H]2C=Nc3cc(OCc4cc(C(=O)OC)cc(COc5cc6c(cc5OC)C(=O)N5CC(=C)C[C@H]5C=N6)n4)c(OC)cc3C(=O)N2C1 [Compound 55, Methyl 2,6-bis((((S)-7-methoxy-2-methylene-5-oxo-2,3,5,11a-tetrahydro-1H-benzo[e]pyrrolo[1,2-a][1,4]diazepin-8-yl)oxy)methyl)isonicotinate] gave an IC50 [1] of 0.0168 nM.
C=C1C[C@H]2C=Nc3cc(OCc4cc(C(=O)O)cc(COc5cc6c(cc5OC)C(=O)N5CC(=C)C[C@H]5C=N6)n4)c(OC)cc3C(=O)N2C1 [Compound 56, 2,6-Bis((((S)-7-methoxy-2-methylene-5-oxo-2,3,5,11a-tetrahydro-1H-benzo[e]pyrrolo[1,2-a][1,4]diazepin-8-yl)oxy)methyl)isonicotinic acid] was tested, and the IC50 [1] was 20.7 nM.
COc1cc2c(cc1OCc1cc(COc3cc4c(cc3OC)C(=O)N3C=C(C)C[C@H]3C=N4)cc(C(=O)O)c1)N=C[C@@H]1CC(C)=CN1C2=O [Compound 49, 3,5-bis((((S)-7-methoxy-2-methyl-5-oxo-5,11a-dihydro-1H-benzo[e]pyrrolo[1,2-a][1,4]diazepin-8-yl)oxy)methyl)benzoic acid] was tested, and the IC50 [2] was 1.84 nM.
Compound COC(=O)c1cc(COc2cc3c(cc2OC)C(=O)N2C=C(C)C[C@H]2C=N3)cc(COc2cc3c(cc2OC)C(=O)N2C=C(C)C[C@H]2C=N3)c1 [Compound 47, Methyl 3,5-bis((((S)-7-methoxy-2-methyl-5-oxo-5,11a-dihydro-1H-benzo[e]pyrrolo[1,2-a][1,4]diazepin-8-yl)oxy)methyl)benzoate] has an IC50 [2] of 0.162 nM.
C=C1C[C@H]2C=Nc3cc(OCc4cccc(COc5cc6c(cc5OC)C(=O)N5CC(=C)C[C@H]5C=N6)c4)c(OC)cc3C(=O)N2C1 [Compound 58, (11aS,11a′S)-8,8′-((1,3-phenylenebis(methylene))bis(oxy))bis(7-methoxy-2-methylene-1,2,3,11a-tetrahydro-5H-benzo[e]pyrrolo[1,2-a][1,4]diazepin-5-one), reference compound] was tested, and the IC50 [1] was 0.0172 nM.
For C=C1C[C@H]2C=Nc3cc(OCc4cc(COc5cc6c(cc5OC)C(=O)N5CC(=C)C[C@H]5C=N6)cc(C(=O)OC)c4)c(OC)cc3C(=O)N2C1 [Compound 51, Methyl 3,5-bis((((S)-7-methoxy-2-methylene-5-oxo-2,3,5,11a-tetrahydro-1H-benzo[e]pyrrolo[1,2-a][1,4]diazepin-8-yl)oxy)methyl)benzoate], the IC50 [1] was 0.0685 nM.

Reference: patent US11524969B2, “Pyrrolobenzodiazepines and conjugates thereof as antitumour agents” (MEDIMMUNE LIMITED, priority 2018, dated 2022)
